Key:
[1] = biological target: T1, recombinant human nectin-4 (Homo sapiens, UniProt Q96NY8); assay: Fluorescence anisotropy (FA) direct binding of fluorescent probes; settings: 1 nM probe
T1 construct: close to the value determined for the complete extracellular domain of nectin-4 (0.94 nM); purchased R&D Systems 2659-N4
T1 sequence (Q96NY8 32-349 limits assumed): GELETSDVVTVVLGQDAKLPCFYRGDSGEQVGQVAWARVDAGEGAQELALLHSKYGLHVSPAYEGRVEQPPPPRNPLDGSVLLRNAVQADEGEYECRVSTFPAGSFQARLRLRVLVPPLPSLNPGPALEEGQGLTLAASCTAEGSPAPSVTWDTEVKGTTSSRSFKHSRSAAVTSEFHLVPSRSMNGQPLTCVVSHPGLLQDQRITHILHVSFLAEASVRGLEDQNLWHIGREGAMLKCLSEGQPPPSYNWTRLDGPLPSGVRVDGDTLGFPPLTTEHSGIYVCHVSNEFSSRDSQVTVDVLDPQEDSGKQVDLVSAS
Excerpt: For characterizing the binding affinity of the bicyclic peptides toward nectin-4, we envisaged a fluorescence anisotropy-based competitive binding assay. Mudd et al. also used such an assay for the development of the bicycle drug conjugate BT8009. Herein, the peptidic scaffold of BT8009 was used as a basis for the required fluorescent nectin-4-ligand (probe) with either 6-TAMRA (1a) or 6-FAM (1b) being attached at the N-terminal Cys residue. […] In this context, the binding of the probe to nectin-4 was started by the addition of nectin-4, followed by continuous fluorescence measurements over 20 min. It is worth noting that a slight initial increase in the FA values could be observed for both probes (FA values at <300 s in Figure S1); however, this putative time-dependent association appeared to be too fast to analyze it. […]
All measurements were conducted at 37 °C over 1200 s (interval of 37 s) using a Cytation 5 multimode microplate reader (BioTek Instruments, Software Gen 5) and black 96-well microplates (BRANDplates with F-bottom wells). […] The FA (r) was calculated by Gen 5 software from the measured parallel and perpendicular fluorescence intensities (I ∥ and I ⊥, respectively) according to eq using a G factor of 0.87 (preset value). r=I∥−G×I⊥/I∥+2G×I⊥ 1 […]

[2] = test system: HT-1376 cells; assay: Flow cytometry with fluorescent probe; format: cell-based, human; settings: 1 µM probe, on ice 1 h; 5637 cells as negative
Experimental: For flow cytometry analysis, HT-1376 and 5637 cells were rinsed with PBS three times and dissociated from a flask by using 50 mM EDTA and a cell scraper. Aliquots of the cell suspension containing 1 × 10^6 cells were pelleted at 300×g for 7 min, and one pellet of each cell line was dissolved in fresh PBS + 3% BSA containing 1 μM of probe 1b. As a negative control, one HT-1376 pellet was dissolved only in PBS + 3% BSA. The cells were incubated on ice for 1 h before they were pelleted again. The staining solution was discarded, and the pellet was washed in 1 mL of PBS + 0.5% BSA + 2 mM EDTA (FACS wash buffer) and centrifuged again. The washing step was repeated a total of three times. After the last wash, the pellets were dissolved in 500 μL of FACS wash buffer and analyzed with an Attune NxT Flow Cytometer (Invitrogen). For the detection, the BL1 laser with an excitation of 488 nm and an emission filter of 530/30 nm set to a Voltage of 270 was used. The forward scatter was set to a voltage of 80 or 120, and the sideward scatter was set to 320 or 370 for HT-1376 or 5637 cells, respectively. A sample of 50 μL was analyzed at a speed of 100 μL/min, leading to a total of 35410 and 34992 analyzed events (singlets) for HT-1376 and 5637 cells, respectively.

dynamic range (ΔFA = mA of bound probe – mA of free probe) [1]: 86 (±7) mA
Compound: CSCC[C@@H]1NC(=O)[C@@H]2CSCCC(=O)N3CN(CN(C3)C(=O)CCSC[C@H](NC(=O)c3ccc(C(=O)O)c(-c4c5ccc(=O)cc-5oc5cc(O)ccc45)c3)C(=O)N3CCC[C@H]3C(=O)N[C@@H](Cc3cccc4ccccc34)C(=O)N[C@H](CC(=O)O)C(=O)N2)C(=O)CCSC[C@@H](C(N)=O)NC(=O)[C@H](Cc2c[nH]c3ccccc23)NC(=O)[C@@H]2C[C@@H](O)CN2C(=O)[C@@H]2CCCN2C(=O)[C@H]([C@@H](C)O)NC(=O)[C@H](CO)NC(=O)[C@H](Cc2c[nH]c3ccccc23)NC(=O)[C@H](CC(=O)O)NC(=O)[C@H](CCCCNC(=N)N)NC1=O [1b]
binding of probe to cells (FACS) [2]: Nectin-4-specific binding
